According to patent US7939546B2, “Quinoline derivatives for modulating DNA methylation” (SuperGen, Inc., priority 2007, dated 2011):
pIC50: −log10 of the molar value. Structures can show the parent of a compound that is named as a salt. Where two headings read alike, the source gives them in different places.

Experiments:
[1] = system: CMV-EE210 cell line containing the epigenetically silenced GFP transgene; assay: Cell-based GFP assay for demethylating activity (reactivation of silenced GFP transgene); settings: for GFP Expression Level: test compound 30-50 μM, decitabine at 11 M (so in the source), three days; for pIC50: read-out: GFP IC50
Protocol: (§1) The demethylating activity of non-bis-quaternary 4-anilinoquinolines were tested in a cell-based GFP (green fluorescent protein) assay. This assay has a GFP gene regulated by the CMV promoter and is sensitive to the methylation of CpG sites within the promoter. A decrease in methylation resulting from exposure to a methylation inhibitor leads to GFP expression and is readily scored. Specifically, the CMV-EE210 cell line containing the epigenetically silenced GFP transgene was used to assay for reactivation of GFP expression by flow cytometry. CMV-EE210 was made by transfecting NIH 3T3 cells with the pTR-UF/UF1/UF2 plasmid (Zolotuhin et al., 1996), which is comprised of pBS(+) (Stratagene, Inc.) containing a cytomegalovirus (CMV) promoter driving a humanized GFP gene adapted for expression in mammalian cells. After transfection, high-level GFP expressing cells were initially selected by FACS analysis and sorting using a MoFlo cytometer (Cytomation, Inc.). […] To screen for reactivation of CMV-EE210, decitabine (at […]) or a test compound (at a concentration of 30-50 μM) was added to complete medium (phenol red free DMEM (Gibco, Life Technologies) supplemented with 10% fetal bovine serum (Hyclone)). Cells were then seeded to 30% confluence (˜5000 cell/well) in 96 well plate containing the test compounds and grown for three days in at 37° C. in 5% CO2. The plates were examined under a fluorescent microscope using a 450-490 excitation filter (13 filter cube, Leica, Deerfield Ill.). Wells were scored g1 positive if 10% of viable cells express GFP, g2 positive if 30% of viable cells express GFP and g3 if greater than 75% of the viable cells express GFP. GFP IC 50 is the concentration of an inhibitor that (like an IC50) is the dose at which the GFP expression level goes from g3 to g1/2.

DNMT1 = DNMT1 (Homo sapiens, UniProt P26358); assay: Selective depletion of DNMT1 by Western blot in treated HCT116 cells; assay type: cell-based; set-up: Protein extracts (equivalent to 100 μg) were isolated from HCT116 cells; endogenous in cells; host or cells: HCT116; settings: for % DNMT1 protein level remaining at 5 µM: HCT-116, 5 μM; for % DNMT1 protein level remaining at 10 µM: HCT-116, 10 μM; for % DNMT1 protein level remaining at 100 µM: HCT-116, 100 μM
DNMT1, sequence (P26358 whole entry): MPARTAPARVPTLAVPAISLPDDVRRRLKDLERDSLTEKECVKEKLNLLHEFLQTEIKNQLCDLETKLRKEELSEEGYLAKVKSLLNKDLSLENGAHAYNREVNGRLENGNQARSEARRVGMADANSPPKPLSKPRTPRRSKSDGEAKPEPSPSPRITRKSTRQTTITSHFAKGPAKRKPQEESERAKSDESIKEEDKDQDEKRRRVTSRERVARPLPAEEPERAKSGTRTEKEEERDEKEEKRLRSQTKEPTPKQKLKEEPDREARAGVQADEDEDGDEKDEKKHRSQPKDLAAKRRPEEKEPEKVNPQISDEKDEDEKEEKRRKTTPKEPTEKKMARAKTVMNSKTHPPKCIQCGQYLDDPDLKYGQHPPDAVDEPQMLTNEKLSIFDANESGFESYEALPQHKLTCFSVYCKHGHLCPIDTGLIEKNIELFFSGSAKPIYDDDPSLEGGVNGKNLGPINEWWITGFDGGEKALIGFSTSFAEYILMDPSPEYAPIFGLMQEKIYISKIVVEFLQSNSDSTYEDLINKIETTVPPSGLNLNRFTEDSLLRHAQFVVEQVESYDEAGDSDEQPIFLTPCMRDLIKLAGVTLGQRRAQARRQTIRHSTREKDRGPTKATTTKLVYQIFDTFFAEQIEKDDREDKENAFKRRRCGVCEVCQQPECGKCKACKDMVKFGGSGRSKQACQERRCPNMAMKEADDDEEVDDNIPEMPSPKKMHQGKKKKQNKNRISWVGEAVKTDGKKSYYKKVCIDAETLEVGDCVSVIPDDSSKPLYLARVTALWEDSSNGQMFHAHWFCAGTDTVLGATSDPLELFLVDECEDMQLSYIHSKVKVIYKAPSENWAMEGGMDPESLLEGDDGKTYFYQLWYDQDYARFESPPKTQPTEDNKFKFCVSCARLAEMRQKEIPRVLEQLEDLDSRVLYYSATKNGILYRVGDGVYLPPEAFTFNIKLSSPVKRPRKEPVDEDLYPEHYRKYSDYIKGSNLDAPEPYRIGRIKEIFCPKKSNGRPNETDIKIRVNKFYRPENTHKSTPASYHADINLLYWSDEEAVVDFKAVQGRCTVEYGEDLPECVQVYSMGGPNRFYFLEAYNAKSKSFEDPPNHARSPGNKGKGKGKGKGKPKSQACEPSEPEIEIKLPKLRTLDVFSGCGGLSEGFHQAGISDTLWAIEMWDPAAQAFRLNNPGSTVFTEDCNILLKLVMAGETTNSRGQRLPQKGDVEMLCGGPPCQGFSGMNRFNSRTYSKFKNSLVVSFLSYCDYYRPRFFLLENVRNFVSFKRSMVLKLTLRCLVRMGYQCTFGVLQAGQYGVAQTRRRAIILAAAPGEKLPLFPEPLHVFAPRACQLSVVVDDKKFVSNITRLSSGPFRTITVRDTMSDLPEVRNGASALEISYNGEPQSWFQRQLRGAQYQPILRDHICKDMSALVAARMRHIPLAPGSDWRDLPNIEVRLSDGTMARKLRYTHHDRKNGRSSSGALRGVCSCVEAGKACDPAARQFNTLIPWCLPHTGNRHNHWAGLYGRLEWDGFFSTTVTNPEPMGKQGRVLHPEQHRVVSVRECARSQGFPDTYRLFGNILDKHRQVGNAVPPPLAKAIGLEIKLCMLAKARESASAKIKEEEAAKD
Text: Biol. 2005, 11, 4727-41.]. For DNMT1, commercially available antibodies from Santa Cruz or New England Biolabs were used.

CMV-EE210 cell line = assay: Toxicity (TD50, cell viability) reported with the GFP assay; settings: for TD50: Dose at which cells are >50% viable
Protocol: as §1

[2] = dose at which the GFP expression level goes from g3 to g1/2

CN(C)c1ccc2c(Nc3ccc(C(=O)Nc4ccc(Nc5cc[n+](C)cc5)cc4)cc3)ccnc2c1.Cl.[Cl-] [Cpd. AA]
GFP Expression Level [1]: g2 (g2 positive if 30% of viable cells express GFP) | % DNMT1 Level (DNMT1; 5 μM): 136% | % DNMT1 Level (DNMT1; 10 μM): 101% | % DNMT1 Level (DNMT1; 100 μM): 32% | TD50 (CMV-EE210 cell line): 25 µM

Cc1cc(Nc2ccc(NC(=O)c3ccc(Nc4ccnc5cc(N(C)C)ccc45)cc3)cc2)nc(N)n1 [Cpd. BB, N-[4-(2-amino-6-methylpyrimidin-4-ylamino)phenyl]-4-(7-(dimethylamino)quinolin-4-ylamino)benzamide hydrochloride]
pIC50 [1]: 4.00 | % DNMT1 protein level remaining at 5 µM (DNMT1): 106% | % DNMT1 protein level remaining at 10 µM (DNMT1): 76% | % DNMT1 protein level remaining at 100 µM (DNMT1): 32% | toxicity relative to decitabine (CMV-EE210 cell line): less than one-half as toxic as decitabine | TD50 (CMV-EE210 cell line): 25 µM

C[n+]1ccc(Nc2cccc(C(=O)Nc3ccc(Nc4ccnc5ccccc45)cc3)c2)cc1.Cl.[Cl-] [Cpd. C, 4-[4-({3-[(1-methyl-4-pyridiniumyl)amino]benzoyl}amino)anilino]quinolinium dichloride]
pIC50 [1, 2]: 4.30 | GFP Expression Level [1]: g1 (g1 positive if 10% of viable cells express GFP) | % DNMT1 Level (DNMT1; 5 μM): 31% | % DNMT1 Level (DNMT1; 10 μM): 33% | % DNMT1 Level (DNMT1; 100 μM): 34% | TD50 (CMV-EE210 cell line): 25 µM

C[n+]1ccc(Nc2ccc(C(=O)Nc3ccc(Nc4ccnc5ccccc45)cc3)cc2)cc1.Cl.[Cl-] [Cpd. D, 4-[4-({4-[(1-methyl-4-pyridiniumyl)amino]benzoyl}amino)anilino]quinolinium dichloride]
GFP Expression Level [1]: g1 (g1 positive if 10% of viable cells express GFP) | % DNMT1 Level (DNMT1; 5 μM): 131% | % DNMT1 Level (DNMT1; 10 μM): 103% | % DNMT1 Level (DNMT1; 100 μM): 74% | TD50 (CMV-EE210 cell line): 12.5 µM

Cc1cc(Nc2ccc(NC(=O)c3ccc(Nc4ccnc5ccccc45)cc3)cc2)nc(N)n1 [Cpd. E, N-(4-(2-amino-6-methylpyrimidin-4-ylamino)phenyl)-4-(quinolin-4-ylamino)benzamide hydrochloride]
pIC50 [1]: 4.92 | GFP Expression Level [1]: g1 (g1 positive if 10% of viable cells express GFP) | % DNMT1 Level (DNMT1; 5 μM): 11% | % DNMT1 Level (DNMT1; 10 μM): 0.5% | TD50 (CMV-EE210 cell line): 25 µM

C[n+]1ccc(Nc2ccc(C(=O)Nc3ccc(Nc4ccnc5ccc(N)cc45)cc3)cc2)cc1 [Cpd. N, 4-[4-({4-[(6-amino-4-quinolinyl)amino]anilino}carbonyl)anilino]-1-methylpyridinium chloride]
pIC50 [1]: 4.00 | GFP Expression Level [1]: g2 (g2 positive if 30% of viable cells express GFP) | % DNMT1 protein level remaining at 5 µM (DNMT1): 160% | % DNMT1 protein level remaining at 10 µM (DNMT1): 152% | % DNMT1 protein level remaining at 100 µM (DNMT1): 130% | TD50 (CMV-EE210 cell line): 50 µM

C[n+]1ccc(Nc2cccc(C(=O)Nc3ccc(Nc4ccnc5cc(N)ccc45)cc3)c2)cc1.Cl.[Cl-] [Cpd. X, 7-amino-4-[4-({3-[(1-methyl-4-pyridiniumyl)amino]benzoyl}amino)anilino]quinolinium dichloride]
pIC50 [1, 2]: 4.30 | GFP Expression Level [1]: g2 (g2 positive if 30% of viable cells express GFP) | % DNMT1 Level (DNMT1; 5 μM): 49% | % DNMT1 Level (DNMT1; 10 μM): 98% | % DNMT1 Level (DNMT1; 100 μM): 73% | TD50 (CMV-EE210 cell line): 25 µM

C[n+]1ccc(Nc2ccc(C(=O)Nc3ccc(Nc4ccnc5cc(N)ccc45)cc3)cc2)cc1 [Cpd. Y, 4-[4-({4-[(7-amino-4-quinolinyl)amino]anilino}carbonyl)anilino]-1-methylpyridinium chloride]
pIC50 [1]: 4.00 | GFP Expression Level [1]: g1 (g1 positive if 10% of viable cells express GFP) | % DNMT1 protein level remaining at 5 µM (DNMT1): 93% | % DNMT1 protein level remaining at 10 µM (DNMT1): 63% | % DNMT1 protein level remaining at 100 µM (DNMT1): 77% | TD50 (CMV-EE210 cell line): 25 µM
